Patent publication US8957238B2, “Process for preparing malathion for pharmaceutical use” (priority 2005, dated 2015)
Where two headings read alike, the source gives them in different places.

Key:
[1] = can cause death from hypoxia; cited from earlier work
[2] = Storage stability of malathion prepared by the process of the invention, HPLC after storage (Example 7, Table IV); assay type: physicochemical
Procedure: The malathion prepared by the process of the invention was tested for storage stability. Malathion prepared by the process of the invention was stored under a variety of different temperature and humidity conditions for up to three (3) months. […] The purity of the sample was determined after storage using HPLC.
Table IV presents the analytical data showing storage of two, different batches of malathion after storage under a variety of different conditions.
MeOOSPO, MeOSSPO, malaxon, MeOOSPS, diethyl fumarate, dimethyl malathion, methyl malathion, O,O-methyl, ethyl S-(1,2-dicarboethoxy)ethyl phosphorodithioate, tetraethyl dithiosuccinate, isomalathion, malathion carboxylic acids, mercaptosuccinate and the tetraethyl thiodisuccinate were assayed for by HPLC. The mobile phase was a mixture of water, acetonitrile and methanol (480:370:150) and one drop of 85% phosphoric acid for each […] of mobile phase. Method validation was performed and system reproducibility, linearity, repeatability, intermediate precision, recovery of related compounds and sensitivity were assessed according to standard methology (U.S. Pharmacopeia, 2004, U.S. Pharmacopeial Convention, Inc., 12601 Twinbrook Parkway, Rockville, Md. 20852). If necessary, the mobile phase composition and/or flow rate were adjusted to meet the chromatographic parameters.

[3] = tested on: cholinesterase enzymes; details: cited from earlier work
[4] = cited from earlier work
[5] = tested on: mice; details: after storage for 6 months at 40° C.; cited from earlier work
[6] = tested on: people; details: after spraying during insect eradication programs; cited from earlier work
[7] = biological target: acetylcholinesterase (Homo sapiens, UniProt P22303); details: cited from earlier work
acetylcholinesterase, sequence (P22303 32-614): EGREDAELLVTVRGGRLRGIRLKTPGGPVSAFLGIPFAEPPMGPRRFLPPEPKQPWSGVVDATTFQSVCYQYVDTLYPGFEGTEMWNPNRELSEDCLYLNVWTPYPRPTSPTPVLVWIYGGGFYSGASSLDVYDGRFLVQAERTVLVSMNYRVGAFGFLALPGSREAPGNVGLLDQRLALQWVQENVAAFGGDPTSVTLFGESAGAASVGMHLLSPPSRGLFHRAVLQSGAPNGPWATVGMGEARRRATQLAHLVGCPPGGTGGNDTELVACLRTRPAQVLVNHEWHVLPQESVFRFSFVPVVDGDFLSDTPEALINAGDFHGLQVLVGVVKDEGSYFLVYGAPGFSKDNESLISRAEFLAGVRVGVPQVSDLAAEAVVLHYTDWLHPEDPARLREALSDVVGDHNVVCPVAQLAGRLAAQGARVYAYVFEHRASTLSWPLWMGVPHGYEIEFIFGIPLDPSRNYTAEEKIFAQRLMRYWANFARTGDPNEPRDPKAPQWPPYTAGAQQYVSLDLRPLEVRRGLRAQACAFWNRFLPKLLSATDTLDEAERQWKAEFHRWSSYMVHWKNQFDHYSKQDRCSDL

[8] = Storage at 25° C., 60% relative humidity for 3 months
[9] = Storage at 30° C. and 60% relative humidity for 3 months
[10] = Storage at 40° C. and 75% relative humidity for 3 months

COP(=O)(OC)SC [MeOOSPO, O,O,S-trimethyl phosphorothioate]
pulmonary toxicity [1]: exhibit pulmonary toxicity

CCOC(=O)CC(SP(=S)(OC)OC)C(=O)OCC (centres unmarked) [Batch II, [(dimethoxyphosphinothioyl)thio]butanedioic acid diethyl ester]
Diethyl fumarate in malathion ([2]; Baseline, time 0): <0.06 % (w/w) | Dimethyl malathion in malathion ([2]; Baseline, time 0): <0.02 % (w/w) | Malaoxon in malathion ([2]; Baseline, time 0): <0.05 % (w/w) | Malathion Purity ([2]; Baseline, time 0): 99.5 % (w/w) | MeOOSPO in malathion ([2]; Baseline, time 0): <0.04 % (w/w) | MeOOSPS in malathion ([2]; Baseline, time 0): 0.09 % (w/w) | MeOSSPO in malathion ([2]; Baseline, time 0): <0.02 % (w/w) | Methyl malathion in malathion ([2]; Baseline, time 0): 0.08 % (w/w) | Diethyl fumarate in malathion ([2]; Storage at 5° C. for 3 months): <0.01 % (w/w) | Dimethyl malathion in malathion ([2]; Storage at 5° C. for 3 months): <0.02 % (w/w) | Malaoxon in malathion ([2]; Storage at 5° C. for 3 months): <0.05 % (w/w) | Malathion Purity ([2]; Storage at 5° C. for 3 months): 99.7 % (w/w) | MeOOSPO in malathion ([2]; Storage at 5° C. for 3 months): <0.04 % (w/w) | MeOOSPS in malathion ([2]; Storage at 5° C. for 3 months): 0.1 % (w/w) | MeOSSPO in malathion ([2]; Storage at 5° C. for 3 months): <0.09 % (w/w) | Methyl malathion in malathion ([2]; Storage at 5° C. for 3 months): 0.07 % (w/w) | Diethyl fumarate in malathion [2, 8]: <0.01 % (w/w) | Dimethyl malathion in malathion [2, 8]: <0.02 % (w/w) | Malaoxon in malathion [2, 8]: <0.05 % (w/w) | Malathion Purity [2, 8]: 99.4 % (w/w) | MeOOSPO in malathion [2, 8]: <0.04 % (w/w) | MeOOSPS in malathion [2, 8]: 0.09 % (w/w) | MeOSSPO in malathion [2, 8]: <0.02 % (w/w) | Methyl malathion in malathion [2, 8]: 0.07 % (w/w) | Diethyl fumarate in malathion [2, 9]: <0.01 % (w/w) | Dimethyl malathion in malathion [2, 9]: <0.02 % (w/w) | Malaoxon in malathion [2, 9]: <0.05 % (w/w) | Malathion Purity [2, 9]: 99.1 % (w/w) | MeOOSPO in malathion [2, 9]: <0.04 % (w/w) | MeOOSPS in malathion [2, 9]: 0.1 % (w/w) | MeOSSPO in malathion [2, 9]: <0.02 % (w/w) | Methyl malathion in malathion [2, 9]: 0.08 % (w/w) | Diethyl fumarate in malathion [2, 10]: <0.02 % (w/w) | Dimethyl malathion in malathion [2, 10]: <0.02 % (w/w) | Malaoxon in malathion [2, 10]: <0.05 % (w/w) | Malathion Purity [2, 10]: 97.4 % (w/w) | MeOOSPO in malathion [2, 10]: 0.05 % (w/w) | MeOOSPS in malathion [2, 10]: 0.2 % (w/w) | MeOSSPO in malathion [2, 10]: <0.02 % (w/w) | Methyl malathion in malathion [2, 10]: 0.08 % (w/w)

CCOC(=O)CC(SP(=O)(OC)OC)C(=O)OCC (centres unmarked) [Malaoxon]
inhibition of cholinesterase enzymes [3]: inhibits cholinesterase enzymes

CCOC(=O)CC(SP(=S)(OC)OC)C(=O)OCC (centres unmarked) [Batch I, [(dimethoxyphosphinothioyl)thio]butanedioic acid diethyl ester]
Diethyl fumarate in malathion ([2]; Baseline, time 0): <0.01 % (w/w) | Dimethyl malathion in malathion ([2]; Baseline, time 0): <0.02 % (w/w) | Malaoxon in malathion ([2]; Baseline, time 0): <0.05 % (w/w) | Malathion Purity ([2]; Baseline, time 0): 99.5 % (w/w) | MeOOSPO in malathion ([2]; Baseline, time 0): <0.04 % (w/w) | MeOOSPS in malathion ([2]; Baseline, time 0): 0.1 % (w/w) | MeOSSPO in malathion ([2]; Baseline, time 0): <0.02 % (w/w) | Methyl malathion in malathion ([2]; Baseline, time 0): 0.06 % (w/w) | Diethyl fumarate in malathion ([2]; Storage at 5° C. for 3 months): <0.01 % (w/w) | Dimethyl malathion in malathion ([2]; Storage at 5° C. for 3 months): <0.02 % (w/w) | Malaoxon in malathion ([2]; Storage at 5° C. for 3 months): <0.02 % (w/w) | Malathion Purity ([2]; Storage at 5° C. for 3 months): 99.7 % (w/w) | MeOOSPO in malathion ([2]; Storage at 5° C. for 3 months): <0.04 % (w/w) | MeOOSPS in malathion ([2]; Storage at 5° C. for 3 months): 0.1 % (w/w) | MeOSSPO in malathion ([2]; Storage at 5° C. for 3 months): <0.02 % (w/w) | Methyl malathion in malathion ([2]; Storage at 5° C. for 3 months): 0.06 % (w/w) | Diethyl fumarate in malathion [2, 8]: <0.01 % (w/w) | Dimethyl malathion in malathion [2, 8]: <0.02 % (w/w) | Malaoxon in malathion [2, 8]: <0.02 % (w/w) | Malathion Purity [2, 8]: 99.0 % (w/w) | MeOOSPO in malathion [2, 8]: <0.04 % (w/w) | MeOOSPS in malathion [2, 8]: 0.1 % (w/w) | MeOSSPO in malathion [2, 8]: <0.02 % (w/w) | Methyl malathion in malathion [2, 8]: 0.06 % (w/w) | Diethyl fumarate in malathion [2, 9]: <0.01 % (w/w) | Dimethyl malathion in malathion [2, 9]: <0.02 % (w/w) | Malaoxon in malathion [2, 9]: <0.02 % (w/w) | Malathion Purity [2, 9]: 99.0 % (w/w) | MeOOSPO in malathion [2, 9]: <0.04 % (w/w) | MeOOSPS in malathion [2, 9]: 0.1 % (w/w) | MeOSSPO in malathion [2, 9]: <0.02 % (w/w) | Methyl malathion in malathion [2, 9]: 0.06 % (w/w) | Diethyl fumarate in malathion [2, 10]: <0.02 % (w/w) | Dimethyl malathion in malathion [2, 10]: <0.02 % (w/w) | Malaoxon in malathion [2, 10]: <0.05 % (w/w) | Malathion Purity [2, 10]: 97.5 % (w/w) | MeOOSPO in malathion [2, 10]: 0.05 % (w/w) | MeOOSPS in malathion [2, 10]: 0.2 % (w/w) | MeOSSPO in malathion [2, 10]: <0.02 % (w/w) | Methyl malathion in malathion [2, 10]: 0.06 % (w/w)

CCOC(=O)CC(SP(=S)(OC)OC)C(=O)OCC (centres unmarked) [malathion, [(dimethoxyphosphinothioyl)thio]butanedioic acid diethyl ester]
isomalathion content of malathion ([4]; after storage for 6 months at 40° C.): 0.45% | isomalathion content of malathion ([4]; before storage): 0.2% | increase in toxicity as measured by LD50 in mice [5]: 35%

CCOC(=O)CC(SP(=S)(OC)OCC)C(=O)OCC (stereo not drawn) [O,O-methyl,ethyl-S-(1,2-dicarboethoxy)ethyl-phosphorodithioate]
pulmonary toxicity [1]: exhibit pulmonary toxicity

CCOC(=O)CC(SP(=S)(OC)OC)C(=O)OCC (centres unmarked) [malathion prepared by the process of the invention] [[(dimethoxyphosphinothioyl)thio]butanedioic acid diethyl ester]
Malathion Purity ([2]; Storage at 5° C. for 3 months): greater than 98.5 % (w/w) | Malathion Purity [2, 8]: greater than 98.5 % (w/w) | Malathion Purity [2, 9]: greater than 98.5 % (w/w)

CCOC(=O)CC(SP(=O)(OC)SC)C(=O)OCC (centres unmarked) [Isomalathion]
pulmonary toxicity [1]: exhibit pulmonary toxicity | death in people [6]: cause death in people | activity against acetylcholinesterase as compared with malathion [7]: approximately 1,000 times
